# Measurements taken from patent EP0345751A1, “Anti-retroviral diflourinated nucleosides” (MERRELL DOW PHARMACEUTICALS INC., priority 1988, dated 1989).
# Tested on: Moloney murine leukemia virus (MoLV)
# Assay: in vitro XC plaque assay (inhibition of growth and replication of murine leukemia virus in mouse SC-1 cells)
# Type: cell-based
# Conditions: compound added 2 hours prior to virus; for Average No. of Foci/plate: Control 36 foci/plate
# Experimental: This assay was performed according to the method of Rowe et al. (Virology, 1970, 42, 1136-39) as previously described by L. Hsu, et al. (J. Virological Methods, 1980, 1, 167-77) and T. L. Bowlin and M. R. Proffitt (J. Interferon Res., 1983, 3(1), 19-31). Mouse SC-1 cells (fibroblast) (10⁵) were seeded into each well of 6-well cluster plates (Costar #3506) in 4 ml Minimum Essential Medium (MEM) with 10% Fetal Calf Serum (FCS). Following an 18 hour incubation period (37°C), Moloney murine leukemia virus (MoLV) was applied at a predetermined titer to give optimal (i.e. countable) numbers of virus plaques. Compounds were added 2 hours prior to addition of the virus. Three days later the culture medium was removed, the SC-1 cell monolayers were exposed to UV irradiation (1800 ergs), and rat XC cells […] were seeded into each well in 4 ml MEM. Following an additional 3 day incubation (37°C), these cells were fixed with ethyl alcohol (95%) and stained with 0.3% crystal violet. Plaques were then counted under low magnification.
smiles,measurement,setting,value
"Nc1ccn([C@@H]2O[C@H](CO)[C@@H](O)C2(F)F)c(=O)n1 [2′-Deoxy-2′,2′-Difluorocytidine, 2′-deoxy-2′,2′-difluorocytidine]",Average No. of Foci/plate,Concentration 0.0025 µg/ml,28
same,Average No. of Foci/plate,Concentration 0.005 µg/ml,15
same,Average No. of Foci/plate,Concentration 0.01 µg/ml,0
same,Average No. of Foci/plate,Concentration 0.1 µg/ml,0
same,inhibition at 0.0025 µg/mL,"Murine leukemia virus, SC1, Concentration 0.0025 µg/ml",22%
same,inhibition at 0.005 µg/mL,"Murine leukemia virus, SC1, Concentration 0.005 µg/ml",58%
same,inhibition at 0.01 µg/mL,"Murine leukemia virus, SC1, Concentration 0.01 µg/ml",100%
same,inhibition at 0.1 µg/mL,"Murine leukemia virus, SC1, Concentration 0.1 µg/ml",100%
"Cc1cn([C@H]2C[C@H](N=[N+]=[N-])[C@@H](CO)O2)c(=O)[nH]c1=O [AZT, 3′-azido-3′-deoxythymidine, reference compound]",Average No. of Foci/plate,Concentration 0.001 µg/ml,18
same,inhibition at 0.001 µg/mL,"Murine leukemia virus, SC1, Concentration 0.001 µg/ml",50%
